Measurements: patent US20260183301A1, “TREATING DISEASES AND DISORDERS WITH IRAK4-MODIFYING COMPOUNDS” (Curis, Inc., priority 2022, published 2026)
Entries after “also recorded” stand apart in the source; their conditions may differ.

How the values were obtained:
NF-kB p-p50 S337 = experiment: Western blot of NF-kB p-p50 S337 in OCL-LY10 cells; type: cell-based; settings: 3 μM and 10 μM, 48 h, vs DMSO
Method: At 48 h post-treatment, cell lysates were obtained. Protein sample concentration was quantified and equal amount 20 μg of whole protein extract was loaded in each well of SDS-polyacrylamide gel. Cell extracts were separated by 10% SDS-PAGE, transferred to nitrocellulose membrane, and probed as indicated. The following antibodies were used for immunoblot analysis: NF-kB p-p50 S337 (Santa Cruz Biotechnology) and b-actin (Cell Signaling Technology).

NF-kappaB p-p50 = experiment: IHC of NF-kappaB p-p50 in paired tumor biopsies of NHL patients before and after treatment; type: in vivo, human; settings: paired tumor biopsy samples (3 cases) before and after treatment
Method: Formalin-fixed, paraffin-embedded sections of human tonsil and lymphoma were used. Tissue sections (5 μm) were deparaffinized, and antigen retrieval was carried out at 90-100° C. in citrate buffer for 10-40 min. The sections were incubated in 1% […] for 10 minutes to quench endogenous tissue peroxidase. Tissue sections were then incubated with primary NF-κB p-p50-specific antibody (at 1:300 dilution) for approximately 16 h at 4° C. The primary NF-κB p-p50-specific antibody used NF-κB p-p50 (S337), sc-271908 from Santa Cruz Biotechnology.
The slides were stained using a standard EnVision+System-HRP kit (DAKO, Carpinteria, CA) according to the manufacture's protocol. Immunohistochemical reactions were developed with diaminobenzidine as the chromogenic peroxidase substrate, and slides were counterstained with hematoxylin. Negative control samples included replacement of the primary antibody with nonimmune IgG1 (Dako).

[1] = tested on: Waldenstrom's macroglobulinemia (WM); experiment: Phase 1 dose-escalation study, WM patient case: serum IgM, m-protein and response; type: in vivo, human
Description: The patient remained asymptomatic for over 4 years with a slow increase in m-protein and IgM during that time. By mid-2017 they started to experience increased fatigue. […] There was no evidence of CXCR4 genomic alteration. […] Several options were discussed including clinical trials and standard of care Bruton's tyrosine kinase inhibitor (BTKi) therapy.
Quantitative immunoglobulins and serum protein electrophoresis were obtained each cycle to determine response to treatment (FIG. 1).
The patient initiated treatment at the first dose level, 50 mg. […] Using a standard 3+3 design the subsequent dose level, 100 mg po BID, was cleared per protocol. […] They reported a significant improvement in their quality of life with resolution of fatigue and returned to a rigorous daily exercise program that they had been unable to perform for the last 2 years due to WM-related symptoms. […] Based on evolving safety data at higher dose levels, the patient was escalated to […] starting with cycle 20 in 1/2020.

[2] = Oral pharmacokinetics in humans; type: in vivo, human
Method: (§1) Seven dosing cohorts included 50 and 100 mg QD, and 50, 100, 200, 300, or 400 mg BID of daily continuous oral monotherapy in 21-Day cycles. Objective included safety and tolerance (primary), pk/pd and early efficacy (secondary), and biomarker correlations (exploratory). 31 patients with resistant or refractory, advanced NHL have been enrolled.

AML or high risk MDS = experiment: Phase 1 study in AML or high risk MDS: marrow response; type: in vivo, human
Method: This study will be conducted in 2 parts: an initial dose escalation and dose expansion phase. […] Three patients with AML or MDS will be enrolled at the designated dose. If none of the first 3 patients experience a DLT during the first cycle, patients may be enrolled into the next higher dose level of 300 mg bid until a safe and effective RP2D is established.
This study is expected to enroll approximately 18 patients to establish the initial RP2D.
The major study inclusion and exclusion criteria are as follows: Relapsed or refractory AML (primary or secondary, including treatment-related) after at least one standard treatment (including chemotherapy, re-induction therapy or stem cell transplantation) based on the assessment of the investigator or high/very high risk relapsed/refractory MDS (IPSS—R criteria), following at least 6 cycles of hypomethylating agents [HMA] or evidence of early progression.

cytokine = experiment: Pharmacodynamic cytokine changes in Phase I NHL patients; type: in vivo, human
THP-1 xerographs = experiment: THP-1 leukemic xerographs: disease burden; type: in vivo; settings: 6 weeks of treatment at 12.5 mg/kg
[3] = tested on: resistant or refractory, advanced NHL; experiment: Phase I dose escalation trial of oral monotherapy in NHL: tumor reduction; type: in vivo, human; settings: all doses
Method: as §1

[4] = tested on: in vivo models of non-Hodgkin's lymphoma; experiment: In vivo models of non-Hodgkin's lymphoma: tumor growth; settings: FIGS. 22A-C, each model

Cc1cc(-c2nc(C(=O)Nc3cc4oc(N5CCOCC5)nc4nc3N3CC[C@@H](O)C3)co2)ccn1 [Compound 1, emavusertib]
expression of NF-kB p-p50 S337 (NF-kB p-p50 S337): downregulated | NF-kappaB p-p50 expression in tumors (NF-kappaB p-p50): significant downregulation; also recorded: inhibited | fatigue (baseline symptom) ([1]; WM patient, 200 mg po BID, by summer of 2019): completely resolved | dose dependence of response / tumor burden ([1]; human patient with intra-patient dose escalation): shrinking in a dose-dependent manner; also recorded: dose/response relationship; also recorded: dose-dependent objective response | accumulation ([2]; multiple daily single dose administration): Minimal to no accumulation | absorption ([2]; oral administration): rapidly absorbed | exposure versus dose ([2]; oral administration): dose-proportional increase in exposure | time of maximum plasma concentrations ([2]; oral administration, post dose): 0.5 to 8 h | accumulation ([2]; steady state, multiple twice daily dose administration): Moderate accumulation | marrow blasts (AML or high risk MDS; all initial patients, cycle 1): marrow blast reduction | marrow complete responses (AML or high risk MDS; initial patients, cycle 1): several marrow complete responses | clinical activity (AML or high risk MDS; relapsed/refractory AML and high-risk MDS, ongoing Phase 1 study): clinical activity | pharmacodynamic changes in cytokines (cytokine): cytokine reductions | disease burden (THP-1 xerographs): decreased the disease burden | evaluable patients with overall tumor burden decreases of ≥20% from baseline [3]: Eight of 28 | tumor growth [4]: reduced tumor growth
